Experimental data published in PMC11823609, “Advancements in the fight against globally distributed OXA-48 carbapenemase: evaluating the new generation of carbapenemase inhibitors” (Antimicrobial Agents and Chemotherapy, 2025).
Values after ≈ are worked out from the molar mass of the structure shown.

Tests used:
Assay in all cases: microbe, parasite or virus in culture
[1] = test system: E. coli HB4 ΔompC/F (CTX-M-14 + OXA-48); assay type: cell-based, Escherichia coli
In short: (§1)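 MICs determined in triplicate, interpreted against EUCAST 13.0 breakpoints, on E. coli TG1 and low-permeability HB4 (ΔompC/F) transformants producing OXA-48 alone or with CTX-M-14. Inhibitors tested alone and at 4 mg/L combined with ertapenem or ceftazidime as reporter substrates.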

[2] = test system: E. coli HB4 ΔompC/F (CTX-M-14); assay type: cell-based, Escherichia coli; conditions: Escherichia coli
[3] = test system: E. coli HB4 ΔompC/F (OXA-48); assay type: cell-based, Escherichia coli; conditions: Escherichia coli
In short: as §1

[4] = test system: E. coli HB4 ΔompC/F; assay type: cell-based, Escherichia coli; conditions: Escherichia coli
In short: as §1

[5] = test system: E. cloacae strain 231 (MLST 171, No ESBL); assay type: cell-based; conditions: Enterobacter cloacae; E. cloacae 231; β-lactamase inhibitor alone; read-out: MIC
In short: (§2)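 OXA-48-carrying Enterobacterales isolates were chosen as pairs with and without ESBLs. Ertapenem and ceftazidime MICs were then measured with each inhibitor at 4 mg/L, in triplicate, using EUCAST 13.0 breakpoints.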

[6] = test system: E. cloacae strain 235 (MLST 171, ESBL); assay type: cell-based; conditions: Enterobacter cloacae
In short: as §2

[7] = test system: E. cloacae strain 272 (MLST 78, ESBL); assay type: cell-based; conditions: Enterobacter cloacae
In short: as §2

[8] = test system: E. cloacae strain 281 (MLST 78, No ESBL); assay type: cell-based; conditions: Enterobacter cloacae; E. cloacae 281; β-lactamase inhibitor alone; read-out: MIC
In short: as §2

[9] = test system: E. coli strain 103 (MLST 10, ESBL); assay type: cell-based; conditions: Escherichia coli
In short: as §2

[10] = test system: E. coli strain 177 (MLST 131, ESBL); assay type: cell-based; conditions: Escherichia coli
In short: as §2

[11] = test system: E. coli strain 224 (MLST 127, No ESBL); assay type: cell-based; conditions: Escherichia coli; E. coli 224; β-lactamase inhibitor alone; read-out: MIC
In short: as §2

[12] = test system: E. coli strain 264 (MLST 131, No ESBL); assay type: cell-based; conditions: Escherichia coli; E. coli 264; β-lactamase inhibitor alone; read-out: MIC
In short: as §2

[13] = test system: K. pneumoniae strain 125 (MLST 307, ESBL); assay type: cell-based; conditions: Klebsiella pneumoniae
In short: as §2

[14] = test system: K. pneumoniae strain 170 (MLST 307, No ESBL); assay type: cell-based; conditions: Klebsiella pneumoniae; K. pneumoniae 170; β-lactamase inhibitor alone; read-out: MIC
In short: as §2

[15] = test system: K. pneumoniae strain 19 (MLST 11, ESBL); assay type: cell-based; conditions: Klebsiella pneumoniae
In short: as §2

[16] = test system: K. pneumoniae strain 194 (MLST 392, No ESBL); assay type: cell-based; conditions: Klebsiella pneumoniae; K. pneumoniae 194; β-lactamase inhibitor alone; read-out: MIC
In short: as §2

[17] = test system: K. pneumoniae strain 23 (MLST 392, ESBL); assay type: cell-based; conditions: Klebsiella pneumoniae
In short: as §2

[18] = test system: K. pneumoniae strain 237 (MLST 147, No ESBL); assay type: cell-based; conditions: Klebsiella pneumoniae; K. pneumoniae 237; β-lactamase inhibitor alone; read-out: MIC
In short: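 MICs were determined in triplicate against WGS-characterized OXA-48-positive clinical isolates, with EUCAST 13.0 breakpoints applied. Each inhibitor was tested at 4 mg/L combined with ertapenem or ceftazidime as reporter substrates; compounds were also tested alone.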

[19] = test system: K. pneumoniae strain 238 (MLST 15, ESBL); assay type: cell-based; conditions: Klebsiella pneumoniae
In short: as §2

[20] = test system: K. pneumoniae strain 413 (MLST 147, ESBL); assay type: cell-based; conditions: Klebsiella pneumoniae
In short: as §2

[21] = test system: K. pneumoniae strain 497 (MLST 11, No ESBL); assay type: cell-based; conditions: Klebsiella pneumoniae; K. pneumoniae 497; β-lactamase inhibitor alone; read-out: MIC
[22] = test system: K. pneumoniae strain 71 (MLST 15, No ESBL); assay type: cell-based; conditions: Klebsiella pneumoniae; K. pneumoniae 71; β-lactamase inhibitor alone; read-out: MIC
In short: as §2

SMILES: O=C(O)c1c(F)ccc2c1OB(O)[C@@H]1C[C@H]21 [Xeruborbactam, xeruborbactam]
- decrease of ertapenem MIC with BLI ([1]; E. coli HB4 coproducing CTX-M-14 and OXA-48, BLI 4 mg/L): 256 fold
- MIC ([1]; Escherichia coli): 16 µg/mL (≈ 72.1 µM)
- MIC [2]: 16 µg/mL (≈ 72.1 µM)
- MIC [3]: 16 µg/mL (≈ 72.1 µM)
- MIC [4]: 16 µg/mL (≈ 72.1 µM)
- MIC [5]: 32 µg/mL
- MIC [6]: ≥ 128 µg/mL
- MIC [7]: 32 µg/mL
- MIC [8]: 32 µg/mL
- MIC [9]: 64 µg/mL
- MIC [10]: 64 µg/mL
- MIC [11]: 32 µg/mL
- MIC [12]: 32 µg/mL
- MIC [13]: 32 µg/mL
- MIC [14]: 32 µg/mL
- MIC [15]: 32 µg/mL
- MIC [16]: 32 µg/mL
- MIC [17]: 32 µg/mL
- MIC [18]: 64 µg/mL
- MIC [19]: 64 µg/mL
- MIC [20]: 64 µg/mL
- MIC [21]: 64 µg/mL
- MIC [22]: 32 µg/mL
